From patent US5001228A, “Bis-alkylamide azo polymerization initiators” (Wako Pure Chemical Industries, Ltd., priority 1988, dated 1991)

Experiments:
[1] = Solubility (15° C.); format: physicochemical; details: for Solubility in DMF: dimethylformamide (DMF); for solubility: water
[2] = Decomposition rate constant; format: physicochemical; details: 80° C.

Q: Which Solubility in acetone [1] does the source give for `CC(C)(N=NC(C)(C)C(=O)NCC1CCNCC1)C(=O)NCC1CCNCC1` [Compound (6), 2,2'-azobis[N-[(piperidin-4-yl)methyl]2-methylpropionamide]·2HCl] here?
A: ≤ 1%

Q: What about the “Solubility in DMF” value [1] of the same compound?
A: ≤ 1%

Q: What about the Solubility in methanol [1] of the same compound?
A: ≥ 10%

Q: What about the Solubility in toluene [1] of the same compound?
A: ≤ 1%

Q: And the solubility [1]?
A: ≥ 100000 µg/mL

Q: Which Solubility in acetone [1] does the source give for `C=CCNC(=O)C(C)(C)N=NC(C)(C)C(=O)NCC=C` [Compound (2), 2,2'-azobis[N-(2-propenyl)-2-methylpropionamide]] here?
A: ≥ 10%

Q: And the “Solubility in DMF” value [1]?
A: ≥ 10%

Q: And the Solubility in methanol [1]?
A: ≥ 10%

Q: And the Solubility in toluene [1]?
A: ≥ 10%

Q: And the solubility [1]?
A: ≤ 10000 µg/mL

Q: And the Decomposition rate constant [2]?
A: 2.80 × 10^-6 sec.^-1

Q: What does the source list for `CC(C)(N=NC(C)(C)C(=O)NCCN1CCNCC1)C(=O)NCCN1CCNCC1` [Compound (7)]?
A: Solubility in acetone [1]: ≤ 1%; Solubility in DMF [1]: 1.5%; Solubility in methanol [1]: ≥ 10%; solubility [1]: ≥ 100000 µg/mL

Q: What does the source list for `CC(C)(N=NC(C)(C)C(=O)NCc1cccnc1)C(=O)NCc1cccnc1` [Compound (4), 2,2'-azobis[N-[(pyridin-3-yl)methyl]-2-methylpropionamide]·2H2 O]?
A: Solubility in acetone [1]: 3%; Solubility in DMF [1]: 1.5%; Solubility in methanol [1]: ≥ 10%; solubility [1]: ≤ 10000 µg/mL

Q: Which Solubility in acetone [1] does the source give for `CC(C)(N=NC(C)(C)C(=O)NCc1ccc(Cl)cc1)C(=O)NCc1ccc(Cl)cc1` [Compound (3), 2,2'-azobis[N-(p-chlorobenzyl)-2-methylpropionamide]] here?
A: ≥ 10%

Q: And the “Solubility in DMF” value [1]?
A: ≥ 10%

Q: What about the Solubility in methanol [1] of the same compound?
A: ~5%

Q: What about the Solubility in toluene [1] of the same compound?
A: ≤ 1%

Q: What about the solubility [1] of the same compound?
A: ≤ 10000 µg/mL

Q: With `CC(C)(N=NC(C)(C)C(=O)NCc1ccncc1)C(=O)NCc1ccncc1` [Compound (5), 2,2'-azobis[N-[(pyridin-4-yl)methyl]-2-methylpropionamide]·2H2 O] as the compound, how does the Solubility in acetone [1] read?
A: ≤ 1%

Q: And the “Solubility in DMF” value [1]?
A: 3%

Q: And the Solubility in methanol [1]?
A: ~9%

Q: And the solubility [1]?
A: ≤ 10000 µg/mL
